tested on: symmetric dimethylation of arginine (SDMA) of PRMT5 substrates in MCF-7 cells; assay: PRMT5 Cell Target Engagement (TE) Assay; assay type: cell-based; settings: Homo sapiens, MCF7, 72 h; MCF-7 cells treated for 3 days; nuclear SDMA by high content imaging; top concentration 10000 nM
Outline: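 MCF-7 cells treated 3 days at 37 °C with 10-point 1:3 titration from 10000 nM top. Fixed cells stained with anti-SDMA antibody plus Alexa488 secondary and Hoechst; nuclear fluorescence quantified by high-content imaging versus DMSO wells. EC50 from 4-parameter fit of percent fluorescence vs log concentration.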

Structure (SMILES)	EC50
Nc1nc2cc(C[C@@H]3CC[C@@]4(O)[C@@H]3C[C@@H](n3cc(F)c5c(N)ncnc53)[C@@H]4O)ccc2cc1Cl [Example 34, (1S,2R,3aR,4S,6aR)-4-((2-amino-3-chloroquinolin-7-yl)methyl)-2-(4-amino-5-fluoro-7H-pyrrolo[2,3-d]pyrimidin-7-yl)hexahydropentalene-1,6a(1H)-diol]	0.3 nM
Nc1nc2cc(C[C@@H]3CC[C@@]4(O)[C@@H]3O[C@@H](n3ccc5c(N)nc(F)nc53)[C@@H]4O)ccc2cc1F [Example 45, (2R,3R,3aS,6S,6aR)-2(4-amino-2-fluoro-7H-pyrrolo[2,3-d]pyrimidin-7-yl)-6-((2-amino-3-fluoroquinolin-7-yl)methyl)hexahydro-3aH-cyclopenta[b]furan-3,3a-diol]	1.2 nM
Nc1nc2cc(O[C@H]3CC[C@@]4(O)[C@@H]3O[C@@H](n3ccc5c(N)ncnc53)[C@@H]4O)ccc2cc1Cl [Example 72, (2R,3R,3aS,6S,6aR)-6-((2-amino-3-chioroquinolin-7-yl)oxy)-2-(4-amino-7H-pyrrolo[2,3-d]pyrimidin-7-yl)hexahydro-3aH-cyclopenta[b]furan-3,3a-diol]	1.2 nM
CNc1ncnc2c1ccn2[C@@H]1C[C@H](COc2ccc3cc(Br)c(N)nc3c2)[C@@](C)(O)[C@H]1O [Example 93, (1R,2S,3R,5R)-5-(((2-amino-3-bromoquinolin-7-yl)oxy)methyl)-1-methyl-3-(4-(methylamino)-7H-pyrrolo[2,3-d]pyrimidin-7-yl)cyclopentane-1,2-diol]	3.5 nM
Cc1cn([C@@H]2O[C@@H]3[C@H](Cc4ccc5cc(Br)c(N)nc5c4)OC[C@]3(O)[C@H]2O)c2ncnc(N)c12 [Example 135, (2R,3R,3aS,6S,6aR)-6-((2-amino-3-bromoquinolin-7-yl)methyl)-2-(4-amino-5-methyl-7H-pyrrolo[2,3-d]pyrimidin-7-yl)tetrahydrofuro[3,4-b]furan-3,3a(4H)-diol]	0.6 nM
C[C@]1(COc2ccc3cccnc3c2)O[C@@H](n2ccc3c(N)ncnc32)[C@H](O)[C@@H]1O [Example 98, (2R,3S,4R,5R)-5-(4-amino-7H-pyrrolo[2,3-d]pyrimidin-7-yl)-2-methyl-2-((quinolin-7-yloxy)methyl)tetrahydrofuran-3,4-diol]	272 nM
Nc1nc2cc(C[C@@H]3CC[C@@]4(O)[C@@H]3C[C@@H](n3cc(F)c5c(N)ncnc53)[C@@H]4O)cc(F)c2cc1F [Example 30, (1S,2R,3aR,4S,6aR)-4-((2-amino-3,5-difluoroquinolin-7-yl)methyl)-2-(4-amino-5-fluoro-7H-pyrrolo[2,3-d]pyrimidin-7-yl)hexahydropentalene-1,6a(1H)-diol]	0.8 nM
C[C@@]1(O)[C@@H](COc2ccc3ccc(N)nc3c2)C[C@@H](n2ccc3cncnc32)[C@@H]1O [Example 105, (1R,2S,3R,5R)-5-(((2-aminoquinolin-7-yl)oxy)methyl)-1-methyl-3-(7H-pyrrolo[2,3-d]pyrimidin-7-yl)cyclopentane-1,2-diol]	0.9 nM
Nc1nc2cc(C[C@@H]3CC[C@@]4(O)[C@@H]3O[C@@H](n3cc(C(F)F)c5c(N)ncnc53)[C@@H]4O)ccc2cc1F [Example 51, (2R,3R,3aS,6S,6aR)-2-[4-amino-5-(difluoromethyl)-7H-pyrrolo[2,3-d]pyrimidin-7-yl]-6-[(2-amino-3-fluoroquinolin-7-yl)methyl]hexahydro-3aH-cyclopenta[b]furan-3,3a-diol]	2.8 nM
Nc1nc2cc(C[C@@H]3CC[C@@]4(O)[C@@H]3C[C@@H](n3cc(F)c5c(N)ncnc53)[C@@H]4O)ccc2cc1F [Example 33, (1S,2R,3aR,4S,6aR)-4-((2-amino-3-fluoroquinolin-7-yl)methyl)-2-(4-amino-5-fluoro-7H-pyrrolo[2,3-d]pyrimidin-7-yl)hexahydropentalene-1,6a(1H)-diol]	0.4 nM
Cc1cn([C@@H]2C[C@@H]3[C@H](Cc4cc(F)c5cc(Cl)c(N)nc5c4)CC[C@]3(O)[C@H]2O)c2ncnc(N)c12 [Example 36, (1S,2R,3aR,4S,6aR)-4-[(2-amino-3-chloro-5-fluoroquinolin-7-yl)methyl]-2-(4-amino-5-methyl-7H-pyrrolo[2,3-d]pyrimidin-7-yl)hexahydropentalene-1,6a(1H)-diol]	1.4 nM
CNc1ncnc2c1ccn2[C@@H]1O[C@@H]2[C@@H](Oc3ccc4cc(Br)c(N)nc4c3)CC[C@]2(O)[C@H]1O [Example 94, (2R,3R,3aS,6S,6aR)-6-((2-amino-3-bromoquinolin-7-yl)oxy)-2-(4-(methylamino)-7H-pyrrolo[2,3-d]pyrimidin-7-yl)hexahydro-3aH-cyclopenta[b]furan-3,3a-diol]	5.3 nM
Nc1nc2cc(O[C@H]3CC[C@@]4(O)[C@@H]3O[C@@H](n3ccc5c(N)ncnc53)[C@@H]4O)ccc2cc1F [Example 71, (2R,3R,3aS,6S,6aR)-6-((2-amino-3-fluoroquinolin-7-yl)oxy)-2-(4-amino-7H-pyrrolo[2,3-d]pyrimidin-7-yl)hexahydro-3aH-cyclopenta[b]furan-3,3a-diol]	9 nM
Nc1nc2cc(O[C@H]3CC[C@@]4(O)[C@@H]3O[C@@H](n3ccc5cncnc53)[C@@H]4O)ccc2cc1Br [Example 85, (2R,3R,3aS,6S,6aR)-6-((2-amino-3-bromoquinolin-7-yl)oxy)-2-(7H-pyrrolo[2,3-d]pyrimidin-7-yl)hexahydro-3aH-cyclopenta[b]furan-3,3a-diol]	32.4 nM
Nc1nc2cc(CC3OC[C@@]4(O)C3C[C@@H](n3ccc5c(N)ncnc53)[C@@H]4O)ccc2cc1Br (stereo partly drawn) [Example 132]	236 nM
CC(C)(O)c1ncnc2c1ccn2[C@@H]1O[C@@H]2[C@@H](Oc3ccc4cc(Br)c(N)nc4c3)CC[C@]2(O)[C@H]1O [Example 78, (2R,3R,3aS,6S,6aR)-6-1(2-amino-3-bromoquinolin-7-yl)oxyl-2-[4-(2-hydroxypropan-2-yl)-7H-pyrrolo[2,3-d]pyrimidin-7-yl]hexahydro-3aH-cyclcopenta[b]furan-3,3a-diol]	5990 nM

The next lines start with the values.

EC50	Structure (SMILES)
0.9 nM	Nc1nc2cc(C[C@@H]3CC[C@@]4(O)[C@@H]3O[C@@H](n3cc(F)c5c(N)ncnc53)[C@@H]4O)ccc2cc1Br [Example 108]
35.8 nM	Cc1ncnc2c1ccn2[C@@H]1O[C@@H]2[C@@H](Cc3ccc4cc(Br)c(N)nc4c3)OC[C@]2(O)[C@H]1O [Example 134, (2R,3R,3aS,6R,6aR)-6-((2-amino-3-bromoquinolin-7-yl)methyl)-2-(4-methyl-7H-pyrrolo[2,3-d]pyrimidin-7-yl)tetrahydrofuro[3,4-b]furan-3,3a(4H)-diol]
11.1 nM	CNc1ncnc2c1c(F)cn2[C@@H]1O[C@@H]2[C@H](Cc3ccc4cc(Br)c(N)nc4c3)CC[C@]2(O)[C@H]1O [Example 96, (2R,3R,3aS,6S,6aR)-6-((2-amino-3-bromoquinolin-7-yl)methyl)-2-(5-fluoro-4-(methylamino)-7H-pyrrolo[2,3-d]pyrimidin-7-yl)hexahydro-3aH-cyclopenta[b]furan-3,3a-diol]
9.9 nM	CNc1ncnc2c1ccn2[C@@H]1O[C@@H]2[C@H](Cc3ccc4cc(Br)c(N)nc4c3)CC[C@]2(O)[C@H]1O [Example 92]
47 nM	CNc1ncnc2c1ccn2[C@@H]1O[C@@H]2[C@H](Cc3ccc4cc(F)c(N)nc4c3)CC[C@]2(O)[C@H]1O [Example 95, (2R,3R,3aS,6S,6aR)-6-((2-amino-3-fluoroquinolin-7-yl)methyl)-2-(4-(methylamino)-7H-pyrrolo[2,3-d]pyrimidin-7-yl)hexahydro-3aH-cyclopenta[b]furan-3,3a-diol]
0.5 nM	Cc1ncnc2c1ccn2[C@@H]1O[C@@H]2[C@H](Cc3ccc4ccc(N)nc4c3)CC[C@]2(O)[C@H]1O [Example 107, (2R,3R,3aS,6S,6aR)-6-((2-aminoquinolin-yl)methyl)-2-(4-methyl-7H-pyrrolo[2,3-d]pyrimidin-7-yl)hexahydro-2H-cyclopenta[b]furan-3,3a-diol]
4.8 nM	Cc1ncnc2c1ccn2[C@@H]1O[C@@H]2[C@@H](Oc3ccc4cc(Br)c(N)nc4c3)CC[C@]2(O)[C@H]1O [Example 7, (2R,3R,3aS,6S,6aR)-6-((2-amino-3-bromoquinolin-7-yl)oxy)-2-(4-methyl-7H-pyrrolo[2,3-d]pyrimidin-7-yl)hexahydro-2H-cyclopenta[b]furan-3,3a-diol]
3.9 nM	Cc1nc(C)c2ccn([C@@H]3O[C@@H]4[C@H](Cc5ccc6cc(Br)c(N)nc6c5)CC[C@]4(O)[C@H]3O)c2n1 [Example 81, (2R,3R,3aS,6S,6aR)-6-((2-ammo-3-bromoquinolin-7-yl)methyl)-2-(2,4-dimethyl-7H-pyrrolo[2,3-d]pyrimidin-7-yl)hexahydro-3aH-cyclcopenta[b]furan-3,3a-diol]
0.4 nM	Nc1nc2cc(C[C@@H]3OC[C@@]4(O)[C@@H]3O[C@@H](n3ccc5c(N)ncnc53)[C@@H]4O)ccc2cc1Br [Example 136, (2R,3R,3aS,6S,6aR)-6-((2-amino-3-bromoquinolin-7-yl)methyl)-2-(4-amino-7H-pyrrolo[2,3-d]pyrimidin-7-yl)tetrahydrofuro[3,4-b]furan-3,3a(4H)-diol]
1.1 nM	Cc1ncnc2c1ccn2[C@@H]1C[C@@H]2[C@H](Cc3ccc4cc(Br)c(N)nc4c3)CC[C@]2(O)[C@H]1O [Example 19, (1S,2R,3aR,4S,6aR)-4-((2-amino-3-bromoquinolin-7-yl)methyl)-2-(4-methyl-7H-pyrrolo[2,3-d]pyrimidin-7-yl)hexahydropentalene-1,6a(1H)-diol]
0.5 nM	Cc1ncnc2c1ccn2[C@@H]1O[C@@H]2[C@H](Cc3ccc4cc(Br)c(N)nc4c3)CC[C@]2(O)[C@H]1O [Example 8, (2R,3R,3aS,6S,6aR)-6-((2-amino-3-bromoquinolin-7-yl)methyl)-2-(4-methyl-7H-pyrrolo[2,3-d]pyrimidin-7-yl)hexahydro-2H-cyclopenta[b]furan-3,3a-diol]

Source: patent US12173026B2, “PRMT5 inhibitors” (Merck Sharp & Dohme LLC, priority 2018, dated 2024)
